Laboratory results published in paper PMC11432330, “Novel Drug-like HsrA Inhibitors Exhibit Potent Narrow-Spectrum Antimicrobial Activities against Helicobacter pylori” (International Journal of Molecular Sciences, 2024).
In brackets after ≈: the same amount, converted by molar mass. Where two headings read alike, the source gives them in different places. Each block holds one molecule with its values, some of them ahead of it.

Columns and labels:
[1] = test system: H. pylori ATCC 700392 (26695); experiment: MIC/MBC, broth microdilution; type: cell-based, Helicobacter pylori; conditions: H. pylori ATCC 700392 (26695)
Description: (§1) The antimicrobial activity of the HsrA inhibitors was evaluated by the determination of the minimal inhibitory concentration (MIC) against four different strains of H. pylori: ATCC 700392 (aka 26695), ATCC 43504 (MTZ-resistant reference strain), ATCC 700684 (CLR-resistant reference strain), and Donostia 2 (LVX-resistant clinical isolate). The MICs were determined by the broth microdilution method, as previously described. Briefly, H. pylori strains were grown in blood agar at 37 °C for 72 h under microaerobic conditions. Fresh inoculums adjusted at OD600 = 0.01 [~10^6 colony forming units (CFU) per mL] in BHI broth supplemented with 4% fetal bovine serum (BHI + FBS) were prepared and immediately exposed to final concentrations between 64 and 0.031 mg/L of each compound of interest. The compound solvent (DMSO) as well as conventional antibiotics (MTZ, CLR, LVX) were included as controls. […] Each experiment was performed twice in triplicate. The MIC and MBC values of the selected compounds against C. jejuni ATCC 33560 were determined by using the same method and culture conditions described for the H. pylori strains.

[2] = test system: H. pylori ATCC 43504 (MTZ-R); experiment: MIC/MBC, broth microdilution; type: cell-based, Helicobacter pylori; conditions: H. pylori ATCC 43504 (MTZ-R)
Description: as §1

[3] = test system: H. pylori Donostia 2 (LVX-R); experiment: MIC/MBC, broth microdilution; type: cell-based, Helicobacter pylori; conditions: H. pylori Donostia 2 (LVX-R)
Description: as §1

[4] = test system: H. pylori ATCC 700684 (CLR-R); experiment: MIC/MBC, broth microdilution; type: cell-based, Helicobacter pylori
Description: as §1

E. coli ATCC 25922 = experiment: MIC/MBC according to EUCAST guidelines; type: cell-based; conditions: Escherichia coli, ATCC25922
Description: (§2) The antimicrobial activities of the selected compounds against several Gram-negative and Gran-positive representative species of normal human microbiota were determined according to the EUCAST guidelines. Briefly, standardized inoculums (0.5 McFarland) were freshly prepared from overnight Mueller–Hinton agar plates of reference strains E. coli ATCC 25922, K. pneumonia ATCC 700603, E. faecalis ATCC 29212, S. aureus ATCC 29213, S. epidermidis ATCC 12228, and S. agalactiae ATCC 12386. Next, bacterial suspensions adjusted to 5 × 10^5 CFU/mL in Mueller–Hinton broth were exposed to a range of concentrations from 64 to 0.031 mg/L of the selected compounds. DMSO and conventional antibiotics LVX and AMP were included as controls. […] Experiments were performed twice in triplicate.

E. faecalis ATCC 29212 = experiment: MIC/MBC according to EUCAST guidelines; type: cell-based; conditions: Enterococcus faecalis, ATCC29212
Description: as §2

[5] = test system: S. epidermidis ATCC 12228; experiment: MIC/MBC according to EUCAST guidelines; type: cell-based; conditions: Staphylococcus epidermidis, ATCC12228
Description: as §2

S. aureus ATCC 29213 = experiment: MIC/MBC according to EUCAST guidelines; type: cell-based; conditions: Staphylococcus aureus, ATCC29213
Description: as §2

S. agalactiae ATCC 12386 = experiment: MIC/MBC according to EUCAST guidelines; type: cell-based; conditions: Streptococcus agalactiae, ATCC12386
Description: as §2

[6] = test system: T1, HsrA (Helicobacter pylori 26695), ORF:12bb3c8f; experiment: EMSA; conditions: EMSA: 10 mM bis-Tris pH 7.5, 40 mM KCl, 100 mg/L BSA, 1 mM DTT, 5% glycerol; room temperature 20 min; 6% native gel, SYBR Safe
T1 sequence: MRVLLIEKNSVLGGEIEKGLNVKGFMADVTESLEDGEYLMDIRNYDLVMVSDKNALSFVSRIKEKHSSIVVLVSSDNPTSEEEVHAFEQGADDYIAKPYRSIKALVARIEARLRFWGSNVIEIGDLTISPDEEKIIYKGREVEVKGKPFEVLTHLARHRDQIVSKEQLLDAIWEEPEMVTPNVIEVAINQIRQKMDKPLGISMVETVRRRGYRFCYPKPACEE

H. pylori = test system: H. pylori; set-up: method as in PMID 31383920, PMID 34354964; conditions: ref [40],[70]; cited from earlier work
C. jejuni ATCC 33560 = experiment: MIC/MBC, broth microdilution; type: cell-based; conditions: Campylobacter jejuni, ATCC33560, C. jejuni ATCC 33560
Description: as §1

[7] = test system: K. pneumoniae ATCC 700603; experiment: MIC/MBC according to EUCAST guidelines; type: cell-based, Klebsiella pneumonia; conditions: Klebsiella pneumoniae, ATCC700603
Description: as §2

[8] = Helicobacter pylori, ATCC700392, read-out: MBC
[9] = Helicobacter pylori, ATCC700392, read-out: MIC
[10] = Helicobacter pylori, ATCC43504, read-out: MBC
[11] = Helicobacter pylori, ATCC43504, read-out: MIC
[12] = Helicobacter pylori, read-out: MBC
[13] = Helicobacter pylori, read-out: MIC
[14] = Helicobacter pylori, ATCC700684, read-out: MBC
[15] = Helicobacter pylori, ATCC700684, read-out: MIC

- MIC [1, 9]: 1 µg/mL (≈ 5.84 µM)
- MIC [2, 11]: 64 µg/mL (≈ 374 µM)
- MIC [3, 13]: 8 µg/mL (≈ 46.7 µM)
- MIC [4, 15]: 1 µg/mL (≈ 5.84 µM)
Molecule: Cc1ncc([N+](=O)[O-])n1CCO [MTZ, metronidazole, reference compound]
- MBC [1, 8]: 2 µg/mL (≈ 11.7 µM)
- MBC [2, 10]: 128 µg/mL (≈ 748 µM)
- MBC [3, 12]: 8 µg/mL (≈ 46.7 µM)
- MBC [4, 14]: 2 µg/mL (≈ 11.7 µM)

- MIC (E. coli ATCC 25922): 4 µg/mL (≈ 11.4 µM)
- MIC (E. faecalis ATCC 29212): 4 µg/mL (≈ 11.4 µM)
- MIC [5]: 4 µg/mL (≈ 11.4 µM)
- MIC (S. aureus ATCC 29213): 2 µg/mL (≈ 5.72 µM)
- MIC (S. agalactiae ATCC 12386): 0.25 µg/mL (≈ 0.715 µM)
Molecule: CC1(C)S[C@@H]2[C@H](NC(=O)[C@H](N)c3ccccc3)C(=O)N2[C@H]1C(=O)O [AMP, ampicillin, reference compound]
- MBC (E. coli ATCC 25922): 4 µg/mL (≈ 11.4 µM)
- MBC (E. faecalis ATCC 29212): 4 µg/mL (≈ 11.4 µM)
- MBC [5]: 4 µg/mL (≈ 11.4 µM)
- MBC (S. aureus ATCC 29213): 4 µg/mL (≈ 11.4 µM)
- MBC (S. agalactiae ATCC 12386): 0.5 µg/mL (≈ 1.43 µM)

- MIC [1]: > 64 µg/mL
- MIC [2]: 64 µg/mL (≈ 171 µM)
- MIC [3]: > 64 µg/mL
- MIC [4]: > 64 µg/mL
Molecule: CC(=O)Nc1cc(C(=O)c2cccs2)nn(-c2ccc(Cl)cc2)c1=O [Ligand XXXI]
- MBC [1]: > 64 µg/mL
- MBC [2]: 64 µg/mL (≈ 171 µM)
- MBC [3]: > 64 µg/mL
- MBC [4]: > 64 µg/mL

Molecule: CCCCACACTTGCCCCATACAGACTAAAATCAAATCACACCTTAAATAATAACAAAGTTTAAAATAAATATTAGTGGTTTTTATTAAGAACGCTTGTCTTTTTAGAATAAATGGCCATAAAATAGCCATAATTCTTGTAGGTATGCCCCCATTTTCCTATAAAAATTCCTAAAAAGATATTGTTATAAGACACATTAATAGTTTTTCTTGTATAATTCTAGGCTGAATTCAATTTATTTTATACGATATTAAGGAGACATATTACCATGTTTCAAATTAGATGGCATGC (double strand) [PporG (porGDAB promoter)]
- binding [6]: binds

- MIC [1]: 16 µg/mL (≈ 45 µM)
- MIC [2]: 4 µg/mL (≈ 11.3 µM)
- MIC [3]: 8 µg/mL (≈ 22.5 µM)
- MIC [4]: 8 µg/mL (≈ 22.5 µM)
Molecule: CCOC(=O)c1ccc(-n2nnc(C=CC=CN3CCOCC3)n2)cc1 [Ligand XVII]
- MBC [1]: 16 µg/mL (≈ 45 µM)
- MBC [2]: 8 µg/mL (≈ 22.5 µM)
- MBC [3]: 8 µg/mL (≈ 22.5 µM)
- MBC [4]: 8 µg/mL (≈ 22.5 µM)

- MIC [1, 9]: < 0.03 µg/mL
- MIC [2, 11]: < 0.03 µg/mL
- MIC [3, 13]: < 0.03 µg/mL
- MIC [4, 15]: 16 µg/mL (≈ 21.4 µM)
Molecule: CC[C@H]1OC(=O)[C@H](C)[C@@H](O[C@H]2C[C@@](C)(OC)[C@@H](O)[C@H](C)O2)[C@H](C)[C@@H](O[C@@H]2O[C@H](C)C[C@H](N(C)C)[C@H]2O)[C@](C)(OC)C[C@@H](C)C(=O)[C@H](C)[C@@H](O)[C@]1(C)O [CLR, clarithromycin, reference compound]
- MBC [1, 8]: < 0.03 µg/mL
- MBC [2, 10]: < 0.03 µg/mL
- MBC [3, 12]: < 0.03 µg/mL
- MBC [4, 14]: 32 µg/mL (≈ 42.8 µM)

Molecule: O=c1cc(-c2ccccc2)oc2cc(O)cc(O)c12 [chrysin]
- Combinatory action with clarithromycin or metronidazole against H. pylori (H. pylori): strong synergistic bactericidal action

Molecule: COc1ccc([C@@H]2CC(=O)c3c(O)cc(O)cc3O2)cc1O [hesperetin]
- Combinatory action with clarithromycin or metronidazole against H. pylori (H. pylori): strong synergistic bactericidal action

- MIC [1]: 8 µg/mL (≈ 19.6 µM)
- MIC [2]: 8 µg/mL (≈ 19.6 µM)
- MIC [3]: 8 µg/mL (≈ 19.6 µM)
- MIC [4]: 8 µg/mL (≈ 19.6 µM)
Molecule: Cc1oc2ccccc2c1CC(=O)NNC(=S)Nc1cccc(C(F)(F)F)c1 [Ligand X]
- MBC [1]: 16 µg/mL (≈ 39.3 µM)
- MBC [2]: 8 µg/mL (≈ 19.6 µM)
- MBC [3]: 16 µg/mL (≈ 39.3 µM)
- MBC [4]: 8 µg/mL (≈ 19.6 µM)

- MIC [1]: 32 µg/mL (≈ 71.4 µM)
- MIC [2]: 16 µg/mL (≈ 35.7 µM)
- MIC [3]: 32 µg/mL (≈ 71.4 µM)
- MIC [4]: 32 µg/mL (≈ 71.4 µM)
Molecule: Cc1sc2c(c1C)C(O)=C(C(=O)Nc1ccc(OC(F)(F)F)cc1)S(=O)(=O)N2C [Ligand XXVIII]
- MBC [1]: 64 µg/mL (≈ 143 µM)
- MBC [2]: 16 µg/mL (≈ 35.7 µM)
- MBC [3]: 32 µg/mL (≈ 71.4 µM)
- MBC [4]: 32 µg/mL (≈ 71.4 µM)

- MIC [1]: 8 µg/mL (≈ 18.7 µM)
- MIC [2]: 4 µg/mL (≈ 9.36 µM)
- MIC [3]: 8 µg/mL (≈ 18.7 µM)
- MIC [4]: 4 µg/mL (≈ 9.36 µM)
Molecule: NC(Cn1ccc(C(F)(F)F)n1)=NOC(=O)Nc1ccc(SC(F)(F)F)cc1 [Ligand IX]
- MBC [1]: 16 µg/mL (≈ 37.4 µM)
- MBC [2]: 8 µg/mL (≈ 18.7 µM)
- MBC [3]: 16 µg/mL (≈ 37.4 µM)
- MBC [4]: 8 µg/mL (≈ 18.7 µM)

- MIC (C. jejuni ATCC 33560): < 0.12 µg/mL
- MIC [1, 9]: 0.12 µg/mL (≈ 0.332 µM)
- MIC [2, 11]: 0.5 µg/mL (≈ 1.38 µM)
- MIC [3, 13]: 16 µg/mL (≈ 44.3 µM)
- MIC [4, 15]: 0.12 µg/mL (≈ 0.332 µM)
- MIC [7]: 0.5 µg/mL (≈ 1.38 µM)
Molecule: C[C@H]1COc2c(N3CCN(C)CC3)c(F)cc3c(=O)c(C(=O)O)cn1c23 [LVX, levofloxacin, reference compound]
- MBC (C. jejuni ATCC 33560): < 0.12 µg/mL
- MBC [1, 8]: 0.12 µg/mL (≈ 0.332 µM)
- MBC [2, 10]: 0.5 µg/mL (≈ 1.38 µM)
- MBC [3, 12]: 32 µg/mL (≈ 88.6 µM)
- MBC [4, 14]: 0.12 µg/mL (≈ 0.332 µM)
- MBC [7]: 0.5 µg/mL (≈ 1.38 µM)
